The text below walks through data of patent publication US20240287108A1, “nSMASE2 INHIBITOR PRODRUGS WITH ENHANCED ORAL AND BRAIN EXPOSURES” (The Johns Hopkins University, priority 2021, published 2024).

The term solubility denotes how much of the substance goes into solution per volume.

The nature of data set [1]: in vitro stability in CES1−/− mouse liver homogenates. The data set is classed as in vitro ADME. As to conditions: CES1−/− mouse liver homogenate, 10 μM, 37° C. On the procedure: (§1) All synthesized prodrugs were next screened for in vitro stability in carboxylesterase 1 knockout (CES1^−/−) mouse plasma, as well as CES1^−/− mouse brain and liver homogenates (Table 2-1). We have previously reported that CES1^−/− mouse model recapitulates human prodrug metabolism.
(§2) For the tissue homogenates, washed tissues were diluted 10-fold in 0.1 M potassium phosphate buffer and homogenized using a probe sonicator. To evaluate the stability of the intact prodrug over time, each of the crude homogenates and plasma were aliquoted to 1 mL and then spiked with a final assay concentration of 10 μM of each prodrug followed by incubation in an orbital shaker at 37° C. for 1 h (in triplicate). Sample from each incubation at predetermined time points (0 min, and 1 h) was quenched with three volumes of acetonitrile containing the internal standard (IS; losartan: 0.5 μm). Samples were vortex-mixed for 30 secs and centrifuged at 10,000×g for 10 min at 4° C. Disappearance of intact prodrugs from these samples were performed on a Dionex ultra-high-performance LC system coupled with Q Exactive Focus orbitrap mass spectrometer (Thermo Fisher Scientific Inc., Waltham MA). […] The mobile phase consisted of 0.1% formic acid in water and 0.1% formic acid in acetonitrile. Pumps were operated at a flow rate of 0.4 mL/min for 9 min using gradient elution. The mass spectrometer controlled by Xcalibur software 4.0.27.13 (Thermo Scientific) was operated with a heated electrospray ionization (HESI) ion source in positive ionization mode. Quantification of the prodrugs were performed in the full-scan mode (from m/z 50 to 1600) by comparing t=0 samples with t=60 min samples.

The nature of data set [2]: in vitro stability in CES1−/− mouse brain homogenates. It counts as in vitro ADME. As to conditions: CES1−/− mouse brain homogenate, 10 μM, 37° C. The protocol: as §1, §2
Data set [3] in a line: solubility of P18 in water and in Soluplus®/Labrasol® micelle formulation. It counts as physicochemical. The text has this: In contrast, the solubility of the prodrugs, e.g., P18 in the micelle formulation were improved as presented below.
The target in data set [4] is T1, nSMase2 (Mus musculus, UniProt Q9JJY3).
T1 construct: the striata dissected and analyzed for nSMase2 activity using a modification of previously published protocols; from tissue; host or cells: striata of GFAP-EGFP transgenic mice, homogenised and sonicated lysate
T1 sequence (Q9JJY3 1-655): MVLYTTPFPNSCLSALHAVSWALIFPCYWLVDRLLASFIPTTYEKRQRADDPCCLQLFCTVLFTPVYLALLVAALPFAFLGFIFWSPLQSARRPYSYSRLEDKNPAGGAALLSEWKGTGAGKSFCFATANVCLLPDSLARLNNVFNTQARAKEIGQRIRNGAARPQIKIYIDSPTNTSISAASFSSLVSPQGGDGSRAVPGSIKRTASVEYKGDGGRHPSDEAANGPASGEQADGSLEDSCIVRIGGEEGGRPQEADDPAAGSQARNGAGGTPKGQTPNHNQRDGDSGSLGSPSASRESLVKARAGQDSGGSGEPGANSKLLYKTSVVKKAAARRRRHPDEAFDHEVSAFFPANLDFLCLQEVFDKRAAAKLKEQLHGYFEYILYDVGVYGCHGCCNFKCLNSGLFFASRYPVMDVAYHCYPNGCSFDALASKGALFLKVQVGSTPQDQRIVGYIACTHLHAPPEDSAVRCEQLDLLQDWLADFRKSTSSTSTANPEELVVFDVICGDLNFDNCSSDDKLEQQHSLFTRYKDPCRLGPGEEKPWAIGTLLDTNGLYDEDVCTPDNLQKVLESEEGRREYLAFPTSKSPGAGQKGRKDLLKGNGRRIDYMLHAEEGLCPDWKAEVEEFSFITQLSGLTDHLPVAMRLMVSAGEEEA
Kind of data set: nSMase2 activity in striata of IL-1β-injected mice. Conditions: P18 3 and 10 mg/kg DPTIP equivalent PO 30 min before intrastriatal IL-1β; 4 h. The data set is classed as in vivo. The text has this:
We have previously reported that nSMase2 regulates the secretion of extracellular vesicles from astrocytes in response to a focal inflammatory brain lesion. Rojas et al., 2018. Striatal injection of IL-1β in mice expressing GFAP-EGFP in astroglia evokes the release of GFP-labelled EVs that rapidly enter into plasma and target multiple organ systems. Dickens et al., 2017. We used this mouse model to evaluate the ability of P18 to inhibit EV release by the inhibition of nSMase2 activity in vivo. […] Interleukin-1β-injected mice, orally pre-dosed with P18 (30 min prior) were euthanized 4-hours post-IL-1β injection. GFP labeled (GFP+) EVs were quantified in plasma and nSMase2 activity was measured in the brain striata.
Rojas et al., 2018; Figuera-Losada et al., 2015. Briefly, mice striata were homogenized in ice-cold Tris-HCl buffer (0.1 M, pH 7.5) containing 250 mM sucrose, 10 mM EGTA (Research Products International, Prospect, IL), 100 μM sodium molybdate and protease inhibitors (Cell Signaling, Danvers, MA) using Biomasher II and then sonicated using Kontes' Micro Ultrasonic Cell Disrupter (three pulses of 15 s duration on ice with 30 s between pulses). […] At the end of the reaction period, the relative fluorescence units were measured at Ex 530 nm, Em 590 nm. […]

Molecules are shown by their SMILES. Values after ≈ are worked out from the molar mass of the structure shown. “Also recorded” adds a separate entry of the source. Where two headings read alike, the source gives them in different places.

For `CCC1CC(N2CCCCC2)CC(CC)N1C(=O)Oc1c(OC)cc(-c2nc(-c3ccccc3)c(-c3cccs3)[nH]2)cc1OC` (stereo not drawn) [Compound P18, 2,6-Dimethoxy-4-(5-phenyl-4-(thiophen-2-yl)-1H-imidazol-2-yl)phenyl 2′,6′-diethyl-[1,4′-bipiperidine]-1′-carboxylate], the “Stability in mouse (% remaining at 1h) Mean + Std Error, Liver” value in data set [1] amounted to 100 ± 3%. Moreover, in data set [2], the “Stability in mouse (% remaining at 1h) Mean + Std Error, Brain” value was found to be 100 ± 1%. The solubility in data set [3] (Labrasol micelles in water, aqueous with cosolvent or surfactant or cyclodextrin, solid dispersion in Labrasol®, hydrated with water, read-out: solubility in micelle formulation) is 1700 µg/mL (≈ 2700 µM); in data set [3] (Soluplus micelles in water, aqueous with cosolvent or surfactant or cyclodextrin, solid dispersion in Soluplus®, hydrated with water, read-out: solubility in micelle formulation), 1700 µg/mL (≈ 2700 µM); in data set [3] (water, read-out: solubility in water) it was under 500 µg/mL. Also, the “nSMase2 activity in brain striata” value in data set [4] is “attenuated nSMase2 activity; also recorded: inhibition of brain nSMase2 activity; also recorded: reduced nSMase2 activity increased in response to IL-1β in a dose dependent manner; also recorded: significant inhibition of nSMase2 activity”.
